Data taken from paper PMC5263201, “GABAA receptor occupancy by subtype selective GABAAα2,3 modulators: PET studies in humans” (Psychopharmacology, 2016).
Where two headings read alike, the source gives them in different places.

Columns and labels:
[1] = Binding to human plasma proteins; format: in vitro ADME; details: read-out: unbound fraction of the total plasma drug
[2] = biological target: GABAA α5β3γ2; parameters: method as in Christian et al 2015; details: recombinant Sf9 membranes α5β3γ2; [3H]flunitrazepam; mean (SD); ref Christian et al 2015; read-out: Affinity in vitro at BZ binding site (Ki) α5; cited from earlier work
[3] = AZD6280; ref parallel multiple ascending dose study; cited from earlier work
[4] = parameters: method as in AstraZeneca Single Ascending Dose studies; details: ref AstraZeneca Single Ascending Dose studies, cited from earlier work
[5] = tested on: GABAA α2β3γ2; parameters: method as in Christian et al 2015; details: 1µM test concentration, GABA EC10, % of 1 µM diazepam, mean ±SE, ref Christian et al 2015; cited from earlier work
[6] = tested on: GABAA α3β3γ2; parameters: method as in Christian et al 2015; details: 1µM test concentration, GABA EC10, % of 1 µM diazepam, mean ±SE, ref Christian et al 2015; cited from earlier work
[7] = biological target: GABAA α2β3γ2; parameters: method as in Christian et al 2015; details: recombinant Sf9 membranes α2β3γ2; [3H]flunitrazepam; mean (SD); ref Christian et al 2015; read-out: Affinity in vitro at BZ binding site (Ki) α2; cited from earlier work
[8] = biological target: Melatonin MT1 (Homo sapiens, UniProt P48039); test: Secondary receptor binding profile
Melatonin MT1, sequence (P48039 whole entry): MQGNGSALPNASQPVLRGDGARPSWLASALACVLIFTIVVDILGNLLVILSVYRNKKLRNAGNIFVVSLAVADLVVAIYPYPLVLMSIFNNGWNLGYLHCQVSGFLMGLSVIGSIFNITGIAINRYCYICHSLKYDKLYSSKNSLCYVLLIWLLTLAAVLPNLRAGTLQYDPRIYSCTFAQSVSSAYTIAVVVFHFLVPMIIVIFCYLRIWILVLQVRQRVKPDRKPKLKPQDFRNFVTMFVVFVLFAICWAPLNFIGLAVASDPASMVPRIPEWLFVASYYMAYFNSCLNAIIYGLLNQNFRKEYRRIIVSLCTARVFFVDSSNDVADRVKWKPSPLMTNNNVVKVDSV

[9] = biological target: GABAA α1β2γ2; parameters: method as in Christian et al 2015; details: recombinant Sf9 membranes α1β2γ2; [3H]flunitrazepam; mean (SD); ref Christian et al 2015; read-out: Affinity in vitro at BZ binding site (Ki) α1; cited from earlier work
[10] = tested on: GABAA α1β2γ2; parameters: method as in Christian et al 2015; details: 1µM test concentration, GABA EC10, % of 1 µM diazepam, mean ±SE, ref Christian et al 2015; cited from earlier work
[11] = parameters: method as in AstraZeneca Single Ascending Dose studies; details: 6 subjects, ref AstraZeneca Single Ascending Dose studies, cited from earlier work
[12] = AZD6280 1mg, Part A, 8 subjects
[13] = AZD6280 5mg, Part B, 8 subjects
[14] = AZD6280 20mg, Part A, 8 subjects
[15] = AZD6280 30mg, Part B, 7 subjects
[16] = AZD6280 40mg, Part A, 8 subjects
[17] = AZD6280 60mg, Part B, 8 subjects

CCCNC(=O)c1nnc2c(-c3cc(OC)ccc3OC)cccc2c1N [AZD6280]
fraction unbound [1]: ~0.1 | Ki [2]: 1.68 ± 0.65 µM | maximum tolerated dose (MTD) [3]: 40 mg | Number of subjects with at least one adverse event [4, 12]: 2 (25) Number (%) of patients | abnormal coordination [4, 12]: 0 Number (%) of patients | depersonalisation [4, 12]: 0 Number (%) of patients | dizziness [4, 12]: 0 Number (%) of patients | dreamy state [4, 12]: 0 Number (%) of patients | euphoric mood [4, 12]: 0 Number (%) of patients | headache [4, 12]: 1 (13) Number (%) of patients | nystagmus [4, 12]: 0 Number (%) of patients | somnolence [4, 12]: 0 Number (%) of patients | abnormal coordination [4, 13]: 0 Number (%) of patients | depersonalisation [4, 13]: 0 Number (%) of patients | dizziness [4, 13]: 2 (25) Number (%) of patients | dreamy state [4, 13]: 0 Number (%) of patients | euphoric mood [4, 13]: 0 Number (%) of patients | headache [4, 13]: 1 (13) Number (%) of patients | nystagmus [4, 13]: 0 Number (%) of patients | somnolence [4, 13]: 1 (13) Number (%) of patients | Number of subjects with at least one adverse event [4, 14]: 6 (75) Number (%) of patients | abnormal coordination [4, 14]: 0 Number (%) of patients | depersonalisation [4, 14]: 0 Number (%) of patients | dizziness [4, 14]: 0 Number (%) of patients | dreamy state [4, 14]: 0 Number (%) of patients | euphoric mood [4, 14]: 0 Number (%) of patients | headache [4, 14]: 2 (25) Number (%) of patients | nystagmus [4, 14]: 0 Number (%) of patients | somnolence [4, 14]: 1 (13) Number (%) of patients | Number of subjects with at least one adverse event [4, 15]: 2 (29) Number (%) of patients | abnormal coordination [4, 15]: 0 Number (%) of patients | depersonalisation [4, 15]: 0 Number (%) of patients | dizziness [4, 15]: 0 Number (%) of patients | dreamy state [4, 15]: 0 Number (%) of patients | euphoric mood [4, 15]: 1 (14) Number (%) of patients | headache [4, 15]: 0 Number (%) of patients | nystagmus [4, 15]: 0 Number (%) of patients | somnolence [4, 15]: 2 (29) Number (%) of patients | Number of subjects with at least one adverse event [4, 16]: 6 (75) Number (%) of patients | abnormal coordination [4, 16]: 0 Number (%) of patients | depersonalisation [4, 16]: 0 Number (%) of patients | dizziness [4, 16]: 0 Number (%) of patients | dreamy state [4, 16]: 0 Number (%) of patients | euphoric mood [4, 16]: 1 (13) Number (%) of patients | headache [4, 16]: 0 Number (%) of patients | nystagmus [4, 16]: 0 Number (%) of patients | somnolence [4, 16]: 3 (38) Number (%) of patients | Number of subjects with at least one adverse event [4, 17]: 7 (88) Number (%) of patients | abnormal coordination [4, 17]: 1 (13) Number (%) of patients | depersonalisation [4, 17]: 1 (13) Number (%) of patients | dizziness [4, 17]: 2 (25) Number (%) of patients | dreamy state [4, 17]: 1 (13) Number (%) of patients | euphoric mood [4, 17]: 0 Number (%) of patients | headache [4, 17]: 1 (13) Number (%) of patients | nystagmus [4, 17]: 1 (13) Number (%) of patients | somnolence [4, 17]: 3 (38) Number (%) of patients | Relative efficacy (%DZ) α2 [5]: 36±4% | Relative efficacy (%DZ) α3 [6]: 34±3% | Ki [7]: 0.021 ± 0.005 µM | IC50 [8]: 0.116 µM | Ki [9]: 0.0005 ± 0.0002 µM | Relative efficacy (%DZ) α1 [10]: 9±3%

CCCNC(=O)c1nnc2c(-c3c(F)cccc3OC)cccc2c1N [AZD7325]
Number of subjects with at least one adverse event ([11]; AZD7325 0.2 mg): 2 (33) Number (%) of patients | anxiety ([11]; AZD7325 0.2 mg): 0 Number (%) of patients | dizziness ([11]; AZD7325 0.2 mg): 0 Number (%) of patients | euphoric mood ([11]; AZD7325 0.2 mg): 0 Number (%) of patients | hypoaesthesia ([11]; AZD7325 0.2 mg): 0 Number (%) of patients | paraesthesia ([11]; AZD7325 0.2 mg): 0 Number (%) of patients | somnolence ([11]; AZD7325 0.2 mg): 0 Number (%) of patients | Number of subjects with at least one adverse event ([11]; AZD7325 1mg): 2 (33) Number (%) of patients | anxiety ([11]; AZD7325 1mg): 0 Number (%) of patients | dizziness ([11]; AZD7325 1mg): 0 Number (%) of patients | euphoric mood ([11]; AZD7325 1mg): 0 Number (%) of patients | hypoaesthesia ([11]; AZD7325 1mg): 0 Number (%) of patients | paraesthesia ([11]; AZD7325 1mg): 0 Number (%) of patients | somnolence ([11]; AZD7325 1mg): 0 Number (%) of patients | Number of subjects with at least one adverse event ([11]; AZD7325 5mg): 4 (67) Number (%) of patients | anxiety ([11]; AZD7325 5mg): 0 Number (%) of patients | dizziness ([11]; AZD7325 5mg): 0 Number (%) of patients | euphoric mood ([11]; AZD7325 5mg): 0 Number (%) of patients | hypoaesthesia ([11]; AZD7325 5mg): 1 (17) Number (%) of patients | paraesthesia ([11]; AZD7325 5mg): 0 Number (%) of patients | somnolence ([11]; AZD7325 5mg): 1 (17) Number (%) of patients | Number of subjects with at least one adverse event ([11]; AZD7325 10 mg): 2 (33) Number (%) of patients | anxiety ([11]; AZD7325 10 mg): 0 Number (%) of patients | dizziness ([11]; AZD7325 10 mg): 2 (33) Number (%) of patients | euphoric mood ([11]; AZD7325 10 mg): 0 Number (%) of patients | hypoaesthesia ([11]; AZD7325 10 mg): 0 Number (%) of patients | paraesthesia ([11]; AZD7325 10 mg): 0 Number (%) of patients | somnolence ([11]; AZD7325 10 mg): 0 Number (%) of patients | Number of subjects with at least one adverse event ([11]; AZD7325 20 mg): 1 (17) Number (%) of patients | anxiety ([11]; AZD7325 20 mg): 0 Number (%) of patients | dizziness ([11]; AZD7325 20 mg): 0 Number (%) of patients | euphoric mood ([11]; AZD7325 20 mg): 1 (17) Number (%) of patients | hypoaesthesia ([11]; AZD7325 20 mg): 0 Number (%) of patients | paraesthesia ([11]; AZD7325 20 mg): 0 Number (%) of patients | somnolence ([11]; AZD7325 20 mg): 0 Number (%) of patients | Number of subjects with at least one adverse event ([11]; AZD7325 30 mg): 3 (50) Number (%) of patients | anxiety ([11]; AZD7325 30 mg): 0 Number (%) of patients | dizziness ([11]; AZD7325 30 mg): 1 (17) Number (%) of patients | euphoric mood ([11]; AZD7325 30 mg): 1 (17) Number (%) of patients | hypoaesthesia ([11]; AZD7325 30 mg): 0 Number (%) of patients | paraesthesia ([11]; AZD7325 30 mg): 0 Number (%) of patients | somnolence ([11]; AZD7325 30 mg): 1 (17) Number (%) of patients | Number of subjects with at least one adverse event ([11]; AZD7325 50 mg): 1 (50) Number (%) of patients | anxiety ([11]; AZD7325 50 mg): 0 Number (%) of patients | dizziness ([11]; AZD7325 50 mg): 0 Number (%) of patients | euphoric mood ([11]; AZD7325 50 mg): 0 Number (%) of patients | hypoaesthesia ([11]; AZD7325 50 mg): 0 Number (%) of patients | paraesthesia ([11]; AZD7325 50 mg): 0 Number (%) of patients | somnolence ([11]; AZD7325 50 mg): 0 Number (%) of patients | Number of subjects with at least one adverse event ([11]; AZD7325 75 mg): 4 (67) Number (%) of patients | anxiety ([11]; AZD7325 75 mg): 0 Number (%) of patients | dizziness ([11]; AZD7325 75 mg): 0 Number (%) of patients | euphoric mood ([11]; AZD7325 75 mg): 3 (50) Number (%) of patients | hypoaesthesia ([11]; AZD7325 75 mg): 0 Number (%) of patients | paraesthesia ([11]; AZD7325 75 mg): 1 (17) Number (%) of patients | somnolence ([11]; AZD7325 75 mg): 0 Number (%) of patients | Number of subjects with at least one adverse event ([11]; AZD7325 100 mg): 4 (67) Number (%) of patients | anxiety ([11]; AZD7325 100 mg): 1 (17) Number (%) of patients | dizziness ([11]; AZD7325 100 mg): 2 (33) Number (%) of patients | euphoric mood ([11]; AZD7325 100 mg): 1 (17) Number (%) of patients | hypoaesthesia ([11]; AZD7325 100 mg): 0 Number (%) of patients | paraesthesia ([11]; AZD7325 100 mg): 0 Number (%) of patients | somnolence ([11]; AZD7325 100 mg): 1 (17) Number (%) of patients
